Data published in PubChem BioAssay AID1918948 (Molecular Pharmacology Branch, DTP, NCI, 2023).

System: K-562 leukemia growth, % test/control
Test: Anticancer human tumor K-562 cell line growth inhibition;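 on viability, T/C: 100% = DMSO vehicle wells and lower values mean fewer viable cells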
Details: spheroids with HUVEC and MSC; for IC50: curve of first compound; for viability, T/C: stronger effect = lower value
Outline: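 Complex spheroids of tumor cells with HUVEC and human MSCs, exposed to iadademstat combined with other agents. Each agent tested in half-log steps from near clinical Cmax (else 10 microM top), DMSO ≤0.25%.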

[1] = second compound 0.1 µM, first compound 0.00949 µM
[2] = second compound 0.1 µM, first compound 0.03 µM
[3] = second compound 0.1 µM, first compound 0.0949 µM
[4] = second compound 0.1 µM, first compound 0.3 µM
[5] = second compound 0.1 µM, first compound 0.949 µM
[6] = second compound 0.1 µM, first compound 3 µM
[7] = second compound 0.316 µM, first compound 0.00949 µM
[8] = second compound 0.316 µM, first compound 0.03 µM
[9] = second compound 0.316 µM, first compound 0.0949 µM
[10] = second compound 0.316 µM, first compound 0.3 µM
[11] = second compound 0.316 µM, first compound 0.949 µM
[12] = second compound 0.316 µM, first compound 3 µM
[13] = second compound 1 µM, first compound 0.00949 µM
[14] = second compound 1 µM, first compound 0.03 µM
[15] = second compound 1 µM, first compound 0.0949 µM
[16] = second compound 1 µM, first compound 0.3 µM
[17] = second compound 1 µM, first compound 0.949 µM
[18] = second compound 1 µM, first compound 3 µM
[19] = second compound 3.16 µM, first compound 0.00949 µM
[20] = second compound 3.16 µM, first compound 0.03 µM
[21] = second compound 3.16 µM, first compound 0.0949 µM
[22] = second compound 3.16 µM, first compound 0.3 µM
[23] = second compound 3.16 µM, first compound 0.949 µM
[24] = second compound 3.16 µM, first compound 3 µM
[25] = second compound 10 µM, first compound 0.00949 µM
[26] = second compound 10 µM, first compound 0.03 µM
[27] = second compound 10 µM, first compound 0.0949 µM
[28] = second compound 10 µM, first compound 0.3 µM
[29] = second compound 10 µM, first compound 0.949 µM
[30] = second compound 10 µM, first compound 3 µM

`CCN(c1cc(-c2ccc(CN3CCOCC3)cc2)cc(C(=O)NCc2c(C)cc(C)[nH]c2=O)c1C)C1CCOCC1` + NC1CC1c1ccc(-c2cccc(O)c2)cc1 was tested, and the IC50 (second compound 0.1 µM) was 2040 nM, the IC50 (second compound 0.316 µM) was 1940 nM and the IC50 (second compound 1 µM) was 1790 nM. The IC50 (second compound 3.16 µM) was 1650 nM, the IC50 (second compound 10 µM) was 904 nM and the viability, T/C [1] was 116%. The viability, T/C [2] was 117%, the viability, T/C [3] was 116% and the viability, T/C [4] was 110%. For the same compound, the viability, T/C [5] was 82.9%, the viability, T/C [6] was 33.5% and the viability, T/C [7] was 115%. The viability, T/C [8] was 117%, the viability, T/C [9] was 115% and the viability, T/C [10] was 108%. The viability, T/C [11] was 80.5%, the viability, T/C [12] was 31.6% and the viability, T/C [13] was 108%. The viability, T/C [14] was 111%, the viability, T/C [15] was 118% and the viability, T/C [16] was 110%. The viability, T/C [17] was 75.9%, the viability, T/C [18] was 28.9% and the viability, T/C [19] was 109%. For the same compound, the viability, T/C [20] was 111%, the viability, T/C [21] was 114% and the viability, T/C [22] was 103%. It also gave a viability, T/C [23] of 70.8%, a viability, T/C [24] of 27.7% and a viability, T/C [25] of 105%. It also gave a viability, T/C [26] of 109%, a viability, T/C [27] of 109% and a viability, T/C [28] of 92.2%. It also gave a viability, T/C [29] of 48.5% and a viability, T/C [30] of 20.1%.
In the case of `O=C(C=Cc1cccc(S(=O)(=O)Nc2ccccc2)c1)NO` + NC1CC1c1ccc(-c2cccc(O)c2)cc1, the IC50 (second compound 0.1 µM) is reported as 240 nM, the IC50 (second compound 0.316 µM) is reported as 227 nM and the IC50 (second compound 1 µM) is reported as 221 nM. The IC50 (second compound 3.16 µM) was 212 nM, the IC50 (second compound 10 µM) was 140 nM and the viability, T/C [1] was 106%. The viability, T/C [2] was 103%, the viability, T/C [3] was 102% and the viability, T/C [4] was 5.9%. The viability, T/C [5] was 2.2%, the viability, T/C [6] was 104% and the viability, T/C [7] was 102%. The viability, T/C [8] was 105%, the viability, T/C [9] was 96.9% and the viability, T/C [10] was 4.4%. It also gave a viability, T/C [11] of 1.16%, a viability, T/C [12] of 99.1% and a viability, T/C [13] of 100%. The viability, T/C [14] was 102%, the viability, T/C [15] was 95.6% and the viability, T/C [16] was 3.61%. It also gave a viability, T/C [17] of 0.8%, a viability, T/C [18] of 96.4% and a viability, T/C [19] of 98.5%. It also gave a viability, T/C [20] of 101%, a viability, T/C [21] of 89.8% and a viability, T/C [22] of 2.99%. It also gave a viability, T/C [23] of 1.26%, a viability, T/C [24] of 94.5% and a viability, T/C [25] of 84.5%. For the same compound, the viability, T/C [26] was 82%, the viability, T/C [27] was 59.1% and the viability, T/C [28] was 2.72%. It also gave a viability, T/C [29] of 0.89% and a viability, T/C [30] of 93.5%.
